Test results taken from ChEMBL document CHEMBL1201862, “PubChem BioAssay data set” (2004).
The source made the active and inactive calls.

What was measured:
[1] = target: T1, Calpain-2 catalytic subunit (Sus scrofa, UniProt P43367); experiment: pig calpain II inhibitor potency, dose response, biochemical, fluorogenic peptide substrate (AID 1420); format: functional
T1 sequence (P43367 whole entry): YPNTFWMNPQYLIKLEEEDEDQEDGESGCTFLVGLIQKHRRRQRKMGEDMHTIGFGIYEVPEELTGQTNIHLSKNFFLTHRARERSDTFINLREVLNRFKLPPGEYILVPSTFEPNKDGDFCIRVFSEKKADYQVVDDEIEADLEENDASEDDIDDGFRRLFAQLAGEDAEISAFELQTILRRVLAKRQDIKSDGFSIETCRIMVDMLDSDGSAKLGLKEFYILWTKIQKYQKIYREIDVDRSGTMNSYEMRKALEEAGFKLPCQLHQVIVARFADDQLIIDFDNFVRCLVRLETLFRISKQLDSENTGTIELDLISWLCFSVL

[2] = target: Paired box protein Pax-8 (Homo sapiens, UniProt Q06710); experiment: inhibitors of PAX8-driven TPO luciferase reporter, dose response, RMG-I cells, cherry-pick (AID 687027); format: functional, cell-based;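 further: luciferase reporter driven by Pax8 target thyroperoxidase promoter measured by SteadyGlo luminescence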
Sequence of Paired box protein Pax-8 (Q06710 whole entry): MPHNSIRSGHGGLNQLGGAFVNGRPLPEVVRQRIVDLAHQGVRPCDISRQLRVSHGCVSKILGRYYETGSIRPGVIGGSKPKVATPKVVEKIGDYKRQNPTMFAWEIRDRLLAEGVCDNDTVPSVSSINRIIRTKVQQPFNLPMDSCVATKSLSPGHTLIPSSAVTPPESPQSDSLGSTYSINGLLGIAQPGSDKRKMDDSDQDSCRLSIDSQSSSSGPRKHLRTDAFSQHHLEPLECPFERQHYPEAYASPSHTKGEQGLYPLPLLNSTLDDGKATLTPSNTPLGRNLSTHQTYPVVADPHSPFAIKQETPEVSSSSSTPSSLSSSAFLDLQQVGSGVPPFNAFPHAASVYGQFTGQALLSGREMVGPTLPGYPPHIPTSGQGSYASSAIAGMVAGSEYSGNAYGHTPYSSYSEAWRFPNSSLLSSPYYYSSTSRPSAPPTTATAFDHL

[3] = target: FAD-linked sulfhydryl oxidase ALR (Homo sapiens, UniProt P55789); experiment: inhibitors of human ALR sulfhydryl oxidase, dose response, biochemical, H2O2 detection, luminescence, cherry-pick (AID 493248)
Sequence of FAD-linked sulfhydryl oxidase ALR (P55789 whole entry): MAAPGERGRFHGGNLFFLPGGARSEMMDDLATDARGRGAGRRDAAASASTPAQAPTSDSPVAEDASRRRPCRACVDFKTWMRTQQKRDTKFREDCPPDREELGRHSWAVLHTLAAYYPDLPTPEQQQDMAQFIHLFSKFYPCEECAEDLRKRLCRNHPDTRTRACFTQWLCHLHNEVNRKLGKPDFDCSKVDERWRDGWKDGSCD

[4] = Luminescence Cell-Based Dose Response HTS to Identify Inhibitors of 5'UTR Stem-Loop Driven Prion Protein mRNA Translation in H4 Neuroglioblastoma Cells. [Related pubchem assays: 1827 (Project Summary), 1813 (Primary HTS)]; format: functional
[5] = system: INS1; experiment: beta cell apoptosis inhibitors, cytokine rescue, dose response, luminescence, retest (AID 449756); format: functional, cell-based; conditions: Rattus norvegicus;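 further: cell death triggered by IL-1 beta plus TNF-alpha plus IFN-gamma mixture; protective hits raise ATP signal compared with cytokine alone wells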
[6] = inhibitors of SNCA 5'UTR-driven reporter translation, confirmation, H4 neuroglioma cells, luminescence (AID 1988); format: functional, cell-based
[7] = microbe, parasite or virus in culture; format: functional; conditions: Mycobacterium tuberculosis
[8] = inhibitors of firefly luciferase expression or activity, dose response, H4 neuroglioma cells, luminescence (AID 1990); format: functional, cell-based
[9] = P. falciparum Dd2 growth inhibitors, dose response, SYBR Green, cherry-picked samples (AID 1159567); format: functional, cell-based
[10] = inhibitors of intracellular T. cruzi replication, confirmation, NIH3T3 host cells, beta-gal luminescence (AID 2044); format: functional, cell-based;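 further: intracellular parasites grown in NIH/3T3 mouse fibroblasts as host cells; luminescent beta-galactosidase reporter signal from transgenic T. cruzi replicating inside host cells; inhibitors lower the luminescence signal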
[11] = cytotoxicity toward NIH3T3 fibroblasts, dose response, counter-screen, cell-based, ATP luminescence, mouse fibroblasts (AID 2010); format: functional;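 further: cells exposed to compound for about 90 hours before reading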
[12] = target: Cytochrome P450 2C19 (Homo sapiens, UniProt P33261); experiment: Cytochrome panel assay with activity outcomes. Panel member name: p450-cyp2c19 Compounds with AC50 equal or less than 10 uM are considered active; format: functional; conditions: read-out: AC50
Sequence of Cytochrome P450 2C19 (P33261 whole entry): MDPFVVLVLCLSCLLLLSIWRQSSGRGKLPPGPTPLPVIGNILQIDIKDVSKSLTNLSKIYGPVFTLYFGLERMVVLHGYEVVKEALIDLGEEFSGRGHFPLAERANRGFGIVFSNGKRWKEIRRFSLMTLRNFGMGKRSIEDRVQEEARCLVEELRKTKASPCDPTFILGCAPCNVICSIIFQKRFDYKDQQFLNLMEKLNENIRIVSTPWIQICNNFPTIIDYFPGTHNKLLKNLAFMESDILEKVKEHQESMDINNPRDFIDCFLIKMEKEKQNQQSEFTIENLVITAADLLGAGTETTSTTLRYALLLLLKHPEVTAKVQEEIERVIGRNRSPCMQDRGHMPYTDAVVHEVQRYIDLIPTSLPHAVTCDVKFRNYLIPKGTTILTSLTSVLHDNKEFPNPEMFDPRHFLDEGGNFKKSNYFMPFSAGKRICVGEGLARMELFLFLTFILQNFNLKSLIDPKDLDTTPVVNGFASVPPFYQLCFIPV

[13] = Luminescence Cell-Based Dose Retest to Confirm Inhibitors of Cancer Stem Cells. [Related pubchem assays (depositor defined):AID2717, AID2721]; format: functional; conditions: Homo sapiens

OC(COc1cccc2ccccc12)CN1CCN(c2ccccc2Cl)CC1 (centres undefined)
IC50 [1]: 3.82 µM (not active)

C[C@@H]1CN([C@H](C)CO)C(=O)c2cc(NS(=O)(=O)c3ccc(F)cc3)ccc2O[C@@H](C)CCCCO[C@H]1CN(C)Cc1ccccc1
AC50 [2]: 17.2 µM (active)

Cc1ccc2nc(C)cc(N/N=C/c3cccnc3)c2c1
AC50 [3]: 6.08 µM (active)

Cc1ccc(NC(=O)c2ccc(C(C)(C)C)cc2)cc1-n1cnnn1
IC50 [1]: 0.895 µM (not active)

COc1ccc(C)cc1Nc1n[n+](-c2ccccc2)c(-c2c(Cl)cccc2Cl)s1
EC50 [4]: 12.6 µM (active) | AC50 [5]: 4.16 µM (active) | EC50 [6]: > 120 µM (not active) | CC50 [7]: 9.91 µM (active) | EC50 [8]: > 120 µM (not active)

COc1ccc(N2CCN(C(CNC(=O)C(C)C)c3ccc4c(c3)OCO4)CC2)cc1 (centres undefined)
AC50 [3]: 4.01 µM (active)

COc1cccc(CN2[C@@H]3CNC[C@H]2[C@H]3c2ccc(-c3ccccc3OC)cc2)c1
AC50 [9]: 5.81 µM (active)

O=C(CN1C(=O)c2ccccc2C1=O)Nc1ccc(-c2nc3ccccc3o2)cc1
IC50 [1]: 17.9 µM (not active)

CN(CCCNC(=O)c1cc2c(Cl)nc3ccccc3c2s1)Cc1ccccc1
EC50 [10]: 0.771 µM (active) | EC50 [11]: > 60 µM (not active) | CC50 [7]: 22.2 µM (active)

Cc1c(/C=N\NC(=O)c2ccc(F)cc2)cnn1C
AC50 [3]: 4.3 µM (active)

COc1cccc(S(=O)(=O)N2CC[C@@H]3[C@H](CO)Nc4ccc(C5=CCCCC5)cc4[C@@H]32)c1
AC50 [2]: 10 µM (active)

C[C@@H]1CN([C@@H](C)CO)S(=O)(=O)c2ccc(C#Cc3ccc(F)cc3)cc2O[C@@H]1CN(C)C(=O)NC1CCCCC1
AC50 [2]: 8.43 µM (active)

Clc1ccccc1-c1nnc2sc(-c3cccs3)nn12
IC50 [1]: 2.83 µM (not active)

CC(=O)c1ccc(S(=O)(=O)Nc2cccc(S(=O)(=O)NC3=NCCC3)c2)cc1
AC50 [3]: > 100 µM (inactive)

COc1ccc2c3c([nH]c2c1)[C@@H](CO)N(S(C)(=O)=O)CC31CCN(Cc2cccc(F)c2)CC1
AC50 [9]: 4.86 µM (active)

CCNC(=O)c1cc2c(c(-c3cccc(-c4cc5ccccc5o4)c3)n1)[C@@H](CCO)N(C(=O)NC(C)C)C2
AC50 [9]: 6.29 µM (active)

CC(=O)Nc1ccc(NC(=O)CC2Nc3cccc4cccc(c34)NC2=O)cc1 (centres undefined)
AC50 [12]: 39.8 µM (inconclusive) | AC50 [3]: 7.99 µM (active)

S=C(NCc1ccco1)N/N=C/c1ccccc1Cl
IC50 [1]: 2.44 µM (not active)

CCCCCc1cc(=O)oc2c(C(CCN3CCCCC3)c3ccc4c(c3)OCO4)c(OC)cc(OC)c12 (centres undefined)
AC50 [13]: 6.41 µM (active) | AC50 [5]: 8 µM (active) | AC50 [2]: 13.4 µM (active)

CC(/C=N/n1c(S)nnc1-c1ccccn1)=C\c1ccccc1
AC50 [3]: 5.86 µM (active)
